How the values were obtained:
[1] = target: T1, Peroxisome proliferator-activated receptor gamma (Homo sapiens) (UniProt P37231); assay: Activity at human full length PPARgamma LBD transfected in COS7 cells assessed as transactivation activity by reporter gene assay relative to rosiglitazone; type: cell-based; settings: COS-7
T1 sequence (whole entry): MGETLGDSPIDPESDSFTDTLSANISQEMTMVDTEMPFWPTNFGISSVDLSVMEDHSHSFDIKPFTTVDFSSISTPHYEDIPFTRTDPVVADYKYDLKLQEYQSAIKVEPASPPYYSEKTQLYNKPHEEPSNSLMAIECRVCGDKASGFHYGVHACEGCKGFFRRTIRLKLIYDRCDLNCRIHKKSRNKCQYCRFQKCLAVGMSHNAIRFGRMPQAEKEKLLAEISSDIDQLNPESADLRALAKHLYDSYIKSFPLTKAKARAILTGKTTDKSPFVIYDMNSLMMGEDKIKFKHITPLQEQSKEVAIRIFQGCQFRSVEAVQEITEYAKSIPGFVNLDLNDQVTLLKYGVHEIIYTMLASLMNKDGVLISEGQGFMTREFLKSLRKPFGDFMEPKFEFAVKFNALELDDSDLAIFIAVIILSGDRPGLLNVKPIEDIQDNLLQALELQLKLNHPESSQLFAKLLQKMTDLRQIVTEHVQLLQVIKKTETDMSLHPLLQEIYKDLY

[2] = target: T2, Peroxisome proliferator-activated receptor gamma (Homo sapiens, UniProt P37231); assay: Activity at PPARgamma (unknown origin) assessed as transactivation activity by reporter gene assay
T2 sequence (P37231 whole entry): T1 sequence (whole entry)

[3] = target: T1, Peroxisome proliferator-activated receptor gamma (Homo sapiens); assay: Activity at human full length PPARgamma transfected in COS7 cells assessed as transactivation activity by reporter gene assay relative to rosiglitazone; type: cell-based; settings: COS-7
[4] = target: T1, Peroxisome proliferator-activated receptor gamma (Homo sapiens); assay: Activity at PPARgamma (unknown origin) transfected in 293T cells assessed as transactivation activity after 24 hrs by PPRE-TK- luciferase reporter gene assay relative to rosiglitazone; type: cell-based
[5] = target: T1, Peroxisome proliferator-activated receptor gamma (Homo sapiens); assay: Activity at PPARgamma (unknown origin) assessed as transactivation activity by reporter gene assay relative to rosiglitazone
[6] = target: T2, Peroxisome proliferator-activated receptor gamma; assay: Activity at human PPARgamma transfected in HEK293 cells assessed as transactivation activity by luciferase reporter gene assay; type: cell-based
[7] = target: T2, Peroxisome proliferator-activated receptor gamma; assay: Activity at full length human PPARgamma transfected in CV1 cells assessed as transactivation activity after 24 hrs by PPRE-TK- luciferase reporter gene assay; type: cell-based, CV-1
[8] = target: T1, Peroxisome proliferator-activated receptor gamma (Homo sapiens); assay: Activity at full length human PPARgamma transfected in CV1 cells assessed as transactivation activity after 24 hrs by PPRE-TK- luciferase reporter gene assay relative to rosiglitazone; type: cell-based; settings: CV-1
[9] = target: T2, Peroxisome proliferator-activated receptor gamma; assay: Activity at human PPARgamma transfected in HEK293 cells assessed as transactivation activity after 24 hrs by Dual-luciferase reporter gene assay relative to rosiglitazone; type: cell-based

`C[C@H](CCC(=O)O)C[C@H](C)C[C@H](C)C(=O)/C=C(\O)[C@H](C)C[C@H](C)C/C=C/[C@@H](C)[C@@H](O)[C@@H](C)[C@@H](O)C[C@@H]1CC[C@@](C)([C@H]2CC[C@@](C)([C@@H](C)O)O2)O1` showed a %max [1] of 35%.
In the case of `Cc1c(C)n(Cc2ccc(-c3ccccc3C(=O)O)cc2)c2ccc(C(=O)N[C@@H](C)c3ccc([N+](=O)[O-])cc3)cc12`, the EC50 [2] is reported as “Not Active”.
In the case of `CCCCCCCCCC(=O)O`, the %max [3] is reported as 60%.
`C[C@@H]1O[C@@H](O[C@@H]2[C@H](O[C@H]3C[C@]4(C)[C@H](C[C@@H](O)[C@@H]5[C@@](C)([C@]6(C)CC[C@H](C(C)(C)O)O6)CC[C@]54C)[C@@]4(C)CC[C@H](O)C(C)(C)[C@H]34)O[C@H](CO)[C@@H](O)[C@@H]2O)[C@H](O)[C@H](O)[C@H]1O` was tested, and the %max [4] was 30%.
`CC[C@H](OC(=O)N(Cc1ccccc1)C(=O)Nc1cc(OC)cc(OC)c1)c1cc(-c2ccc(OC(C)(C)C(=O)O)cc2)no1` showed an EC50 ([2]; read-out: EC50) of 183 nM and a %max [5] of 60%.
With `Cc1oc(-c2ccccc2)nc1CCOc1ccc(C[C@@H](NC(=O)/C=C/c2ccco2)C(=O)O)cc1` the EC50 [6] was 155 nM.
With `CCCc1nc2c(C)cc(-c3nc4ccccc4n3C)cc2n1Cc1ccc(-c2ccccc2C(=O)O)cc1` the EC50 [7] was 4500 nM and the %max [8] was 30%.
For `Cc1c(C)n(Cc2ccc(-c3ccccc3C(=O)O)cc2)c2ccc(C(=O)NCc3cccnc3)cc12`, the EC50 [9] was “Not Active”.
Molecule `CC[C@@H](OC(=O)N(Cc1ccccc1)C(=O)Nc1cc(OC)cc(OC)c1)c1cc(-c2ccc(OC(C)(C)C(=O)O)cc2)no1` has an EC50 ([2]; read-out: EC50) of 0.38 nM and a %max [5] of 70%.

— ChEMBL document CHEMBL3585309, “Peroxisome Proliferator-Activated Receptor γ (PPARγ) and Ligand Choreography: Newcomers Take the Stage” (J Med Chem, 2015)
